Assay [1] deals with primary colon cancer cell line SBCA. The experiment in a line: Proliferation of primary colon cancer cell line SBCA. It is filed as cell-based, human. The method, then: FIG. 21A-E A. Dot1L/H3K79me2 inhibitor EZP004777 (10 uM) had no effect on SUZ12 expression but reduce Sox2. B. EZP004777 had no effect on primary colon cancer cell line SBCA. C. EZH2 inhibitor DZNep reduced SBCA cell proliferation. D. SUZ12 knockdown reduced H3K27m3 level. E. Effect of I1-22 on tumor sphere assay was analyzed in shEZH2, shSUZ12 and Dznep treated cells.
Three primary colon cancer cell lines (SB, WR, JR) were established from fresh colon tissues. These primary colon cancer cells and DLD1 (ATCC) were studied. Colon cancer cells were treated with recombinant IL-22 (R&D) for different time points. The EZH2 inhibitor DZNep was added in conventional or sphere culture (see, e.g., Kryczek, I., et al., (2012) International journal of cancer 130, 29-39). Tumor cell sphere formation and gene expression were examined (see, e.g., Kryczek, I., et al., (2012) International journal of cancer 130, 29-39).

The subject of the next assay is DLD-1 colon cancer cells. The experiment in a line: In vivo tumor formation of DLD-1 cells in NSG mice. More on the design: species or system NOD/Shi-scid/IL-2Rγnull (NSG) mice. From the text: (A), IL-22 is expressed in colon cancer tissues. IL-22 mRNA was detected by real-time PCR in colon cancer tissues and peripheral blood. *P<0.05 compared to blood, 20 colon cancer patients. (B-D), Endogenous IL-22 promotes colon carcinogenesis. Single cells (10^7) isolated from colon cancer tissue were mixed with anti-IL-22 antibody or control mAb, and then subcutaneously injected to NSG mice. Tumor growth (B), incidence (C), and animal survival (D) are shown. (P<0.05 for all, n=5 per group). (E-G) Recombinant IL-22 promotes colon carcinogenesis. DLD-1 colon cancer cells (10^5) were pre-incubated with IL-22 (20 ng/ml) for 1 hour, and then subcutaneously injected to NSG mice. Tumor growth (E), incidence (F), and animal survival (G) are shown. (P<0.05 for all, n=5 per group). (H, I) IL-22 enhances colon cancer sphere formation. DLD-1 colon cancer cells were pre-incubated for 24 hours with IL-22. Sphere assay was performed with 2,000 cells. Representative image of spheres (H) and the mean numbers of spheres (I) are shown. *P<0.05, n=5. (J) IL-22 increases ALDH1 activity in colon cancer cells. Colon cancer cell lines (DLD-1 and HT29) and two primary colon cancer cells (1, 2) were cultured with IL-22 for 24 hours. ALDH activity was determined by FACS based on aldefluor fluorescence. Cells treated with DEAB inhibitor were negative controls. Results are expressed as fold changes of ALDH expression. (P<0.05 for all, n=3 repeats per group). (K-M) IL-22 stimulates core stem cell gene expression in colon cancer cells. DLD-1 colon cancer cells were cultured with IL-22 (20 ng/ml). The mRNA of stem cell core gene was detected by real-time PCR (K) and proteins were detected by western blotting (L, M). (*P<0.05, n=5).
IL-22 treated 10^6 DLD-1 cells were inoculated into NSG mice. Tumor incidence (A) and tumor growth (B) were recorded. n=5 per group, P<0.05.
To confirm the tumorigenic potential of endogenous IL-22, different concentrations of a colorectal adenocarcinoma cancer cell line, DLD-1 cells, were injected into the NSG mice to determine a nontumorigenic concentration. […] However, exogenous IL-22 administration enabled tumor formation with 10^5DLD-1 cells as shown by increased tumor volume (FIG. 1E) and incidence (FIG. 1F) and decreased mouse survival (FIG. 1G). When 10^6 DLD-1 cells were inoculated into mice, IL-22 accelerated tumor development (FIG. 13A) and growth as well (FIG. 13B). Thus, IL-22 may enhance tumorigenesis by altering cancer stem cell properties.
Colon cancer cells (10^2-5×10^6) in 100 μl of buffered saline were subcutaneously injected into dorsal tissues of female NOD/Shi-scid/IL-2Rγnull (NSG) mice (6-8 weeks old, Jackson Lab, Bar Harbor, Me.) (see, e.g., Curiel, T. J. et al. (2004) Nat Med 10, 942-949; Curiel, T. J. et al. (2003) Nat Med 9, 562-567; Kryczek, I. et al. (2012) Int J Cancer 130, 29-39). Tumor size was measured two times weekly using calipers fitted with a Vernier scale. Tumor volume was calculated based on three perpendicular measurements (see, e.g., Curiel, T. J. et al. (2004) Nat Med 10, 942-949; Curiel, T. J. et al. (2003) Nat Med 9, 562-567). Tumor incidence was monitored.

Setting [2] is: 10^5 DLD-1 cells pre-incubated with IL-22 (20 ng/ml) 1 hour.

Two compounds from US9618513B2, “Compositions and methods for detecting and treating colorectal cancer” (The Regents of the University of Michigan, priority 2014, dated 2017) can be followed below.

Regarding `CC(C)N(CCCNC(=O)Nc1ccc(C(C)(C)C)cc1)C[C@H]1O[C@@H](n2ccc3c(N)ncnc32)[C@H](O)[C@@H]1O` [EPZ004777], the SBCA cell proliferation result in assay [1] was “no effect”.
For the compound “IL-22: recombinant IL-22 (R&D systems), cytokine interleukin-22”, in the assay with DLD-1 colon cancer cells (setting [2]), the mouse survival entry is reported as “decreased”, the tumor incidence result is on record as “increased” and the tumor volume entry is “increased”. In addition, in the assay on DLD-1 colon cancer cells (10^6 IL-22 treated DLD-1 cells), the “tumor development (incidence)” value is “accelerated” and the tumor growth result was “accelerated”.
